Counter-ions that a name gives are not always drawn. Like-named read-outs stand apart in the source and are kept apart here.
Tests used:
[1] = system: eight representative weed species; type: in vivo
Procedure: (§1) The bioperformance enhancement of paraquat in the presence of amines of the present invention was evaluated. An aqueous formulation of paraquat dichloride containing 0.5% by weight of amine (based on the weight of the parent amine and based on total spray volume) was applied using a moving track sprayer to eight representative weed species at 10, 20 and 40 g/ha (based on paraquat ion). The spray volume was equivalent to 200 l/ha.
(§2) Three replicates of each test were undertaken and the biological data (% activity where 0% represents no herbicidal effect and 100% represents complete kill) at 7 days after treatment is expressed in Table 4 as a mean over all species based on an average response over the combined rates. The results are compared with an equivalent formulation containing only paraquat chloride.
as §1, with “presence of some amines of” for “presence of amines of”, “dichloride containing 0.2% by weight” for “dichloride containing 0.5% by weight”
as §2, with “5” for “4”, “equivalent standard” for “equivalent”, “containing” for “containing only”, “chloride and 0.2% of an effective adjuvant blend” for “chloride.”

[2] = type: physicochemical; conditions: for loading at which compatible with compositions of WO 02/076212: actual amine
From the text: It is to be understood that the term physical incompatibility in relation to adjuvants used in bipyridyl compositions indicates either gross separation of one or more components of the composition which may or may not be accompanied by a significant change in formulation rheology or bulk homogeneity. It is not necessarily essential that the composition is fully homogeneous in a strict physical sense provided that the composition is substantially homogeneous in the bulk. Thus a slight separation of a second phase may be acceptable provided that the separated phase remains fully dispersed in the bulk. […] This is obviously undesirable for a number of reasons. The term physical compatibility indicates the reverse of physical incompatibility as defined above.

Sida spinosa (SIDSP) = type: in vivo
From the text: (§3) TEDA was first neutralized with hydrochloric acid to form the TEDA hydrochloride. An aqueous formulation of paraquat dichloride containing 0.5% by weight of TEDA based on total spray volume was applied to test species Ipomoea hederacea (IPOHE) and Sida spinosa (SIDSP) at 10 and 30 g/ha (based on paraquat ion). The spray volume was equivalent to 200 L/ha The biological data (% activity) at 6 days after treatment is expressed in Table 1 as an average response over the combined rates and is compared with an equivalent formulation containing only paraquat chloride.
(§4) The following compositions were compared using the general procedure of Example 1. TEDA was used in the form of its hydrochloride: • 1. An aqueous formulation containing paraquat dichloride and 0.5% by weight of TEDA hydrochloride based on total spray volume; • 2. An aqueous formulation containing paraquat dichloride and 0.5% by weight based on total spray volume of a mixture of TEDA hydrochloride and the surfactant EMPIGEN BB and TEDA at a ratio of TEDA to EMPIGEN BB of 5:2. EMPIGEN BB is lauryl betaine supplied at a concentration of 30%. The proportions given above and below are based on lauryl betaine content. • 3. An aqueous formulation (comparison) containing paraquat dichloride and 0.5% by weight based on total spray volume of EMPIGEN BB • 4. An aqueous formulation containing paraquat dichloride and 0.5% by weight based on total spray volume of a mixture of TEDA hydrochloride and the surfactant AGRIMUL PG2067 and TEDA at a ratio of TEDA to AGRIMUL PG2067 of 5:2. AGRIMUL PG2067 is an alkylpolyglycoside supplied at a concentration of 70%. The proportions given above and below are based on alkylpolyglycoside content. • 5. An aqueous formulation (comparison) containing paraquat chloride and 0.5% by weight based on total spray volume of AGRIMUL PG2067.

[3] = system: Ipomoea hederacea (IPOHE); type: in vivo
From the text: as §3, §4

[4] = Example 4, 0.5% by weight amine, paraquat 10, 20 and 40 g/ha, 200 l/ha, 7 days after treatment, mean over all species and combined rates, three replicates
[5] = Example 2, general procedure of Example 1, adjuvant 0.5% by weight of total spray volume, TEDA:surfactant 5:2
[6] = Example 3, procedure of Example 1, adjuvant 0.5% by weight of total spray volume, TEDA salts with anionic surfactants

Row | SMILES | Mean Activity (%) ([1]; in vivo) | loading at which compatible with compositions of WO 02/076212 [2] | Mean Activity (%) [1, 4] [%] | also measured
1 | NCCN [EDA as HCl salt, ethylenediamine, reference compound] | 54 |  |  | 
2 | C1CN2CCN1CC2 [TEDA, Triethylenediamine] |  | ≥ 60 g/L | 61 | % Activity SIDSP (Sida spinosa (SIDSP); [5]): 35.8%; % Activity SIDSP (Sida spinosa (SIDSP); [6]): 45.9%; % Activity IPOHE [3, 5]: 64.4%; % Activity IPOHE [3, 6]: 63.8%
3 | NCCNCCNCCN [TETA as HCl salt, triethylenetetramine, reference compound] | 60 | less than 30 g/l |  | 
4 | CN(C)CCN(C)C [TMEDA as HCl salt, tetramethylethylenediamine] |  | ≤ 30 g/L | 59 | Mean Activity (%) ([1]; Example 5, 0.2% by weight amine, paraquat 10, 20 and 40 g/ha, 200 l/ha, 7 days after treatment, mean over all species and combined rates, three replicates): 56%
5 | CCCCCCCCOC(=O)CC(C(=O)OCCCCCCCC)S(=O)(=O)O.[Na] (stereo not shown) [sodium dioctyl sulphosuccinate, reference compound] |  |  |  | level at which physical separation / two phases observed ([2]; about 120 g/l paraquat ion, about 80 g/l diquat ion, alginate, about 120 g/l magnesium sulphate heptahydrate): below 10 g/l

— patent US7763567B2, “Agrochemical compositions” (priority 2003, dated 2010)
